Structures are written as SMILES.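 Results reflect a 48-hour exposure of cells in 96-well plates to compound at five concentrations. GI50 = concentration required for 50% inhibition of growth.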 Active and inactive are the calls of the source. Cut-off read from the data, not from the text of the source: active = GI50 up to about 1.1 µM and inactive = higher.

The text below walks through data of ChEMBL document CHEMBL1201862, “PubChem BioAssay data set” (2004).

Assay in all cases: DTP human tumour cell line panel, 48 h
The test system of experiment [1] is DMS-273.
In experiment [2] the test system is RXF 631.
In experiment [3] the test system is LXFL 529.
Experiment [4] relates to HOP-18.
For experiment [5], the system named is XF498.
The subject of experiment [6] is DMS-114.
Experiment [7] concerns M19-MEL.
For experiment [8], the system named is DLD-1.

Take `O=C1NCCS(=O)(=O)N[C@@H](CC2=CC=CCC2)C(=O)N2CCCC12` (some centres undefined): the GI50 in experiment [1], in experiment [2], in experiment [3], in experiment [4], in experiment [5] and in experiment [6] was > 100 µM (inactive) throughout. Further, the GI50 in experiment [7] and in experiment [8] was > 100 µM (inactive) each time.

Take `O=c1[nH]nc2c3n[nH]c(=O)n3c3ccccc3n12`: the GI50 in experiment [1], in experiment [2], in experiment [3], in experiment [5], in experiment [6] and in experiment [7] was > 100 µM (inactive) each time. In experiment [8], the GI50 was > 100 µM (inactive).

For the compound `O=C(O)CC[C@H](NC(=O)c1ccc(-n2nc3ccc(=O)cc-3[nH]c2=O)cc1)C(=O)O`, the GI50 in experiment [1], in experiment [2], in experiment [3], in experiment [4], in experiment [6] and in experiment [7] was > 100 µM (inactive) each time. Besides, the GI50 in experiment [8] was > 100 µM (inactive).

Consider `COC(=O)c1sc(C(=O)OC)c2c1CSC2`, for which the GI50 in experiment [1] was > 100 µM (inactive); in experiment [2], > 100 µM (inactive); in experiment [3], > 100 µM (inactive); in experiment [4] it was > 100 µM (inactive); in experiment [5] it was 34.7 µM (inactive); in experiment [6] it was > 85.5 µM (inactive). Also, the GI50 in experiment [7] and in experiment [8] was > 100 µM (inactive) each time.

In the case of `CC1(C)CCC[C@@]2(C)C1CC[C@H]1CC(O)C3(C)CCC12C3` (some centres undefined), the GI50 was 19.1 µM (inactive) in experiment [2]; 17.2 µM (inactive) in experiment [3]; 17.4 µM (inactive) in experiment [5]; 17.3 µM (inactive) in experiment [6]; 21.1 µM (inactive) in experiment [7]; 17.1 µM (inactive) in experiment [8].

With `CC1(C)COC2(OC1)C1=NS(=O)(=O)CC13CCC2C3(C)C` (centres undefined), the GI50 in experiment [1], in experiment [2], in experiment [3], in experiment [4], in experiment [5] and in experiment [6] was > 100 µM (inactive) each time. The GI50 in experiment [7] and in experiment [8] was > 100 µM (inactive) throughout.

`COc1cccc(OC)c1/C=N\N1C(=O)c2ccccc2C1=O`: the GI50 in experiment [1] is 21.1 µM (inactive); in experiment [2] it was 29.4 µM (inactive); in experiment [3], 40.7 µM (inactive); in experiment [4] it was > 100 µM (inactive); in experiment [5], 28.6 µM (inactive); in experiment [6], 31.6 µM (inactive). The values for the GI50 in experiment [7] and in experiment [8] were 48.4 µM (inactive) and 49 µM (inactive), respectively.

As for `CC1OC(n2cc(F)c(=O)[nH]c2=O)CCC1=O` (centres undefined), the GI50 in experiment [1] was 62.5 µM (inactive); in experiment [2] it was 39.9 µM (inactive); in experiment [3], > 100 µM (inactive); in experiment [4], 65.2 µM (inactive); in experiment [6] it was > 100 µM (inactive); in experiment [7], > 100 µM (inactive). Also, the GI50 in experiment [8] was 52.5 µM (inactive).

On to `O=c1[nH]ccc2c1ccn2C1CC(O)C(CO)O1` (centres undefined), for which the GI50 in experiment [1], in experiment [2], in experiment [3], in experiment [4], in experiment [6] and in experiment [7] was > 100 µM (inactive) each time. Moreover, the GI50 in experiment [8] was > 100 µM (inactive).

Turning to `COc1ccc(/C(=N/NC(N)=O)C(c2ccc(OC)cc2)C2C(=O)Oc3ccccc32)cc1` (centres undefined), the GI50 in experiment [1], in experiment [2], in experiment [3], in experiment [5], in experiment [6] and in experiment [7] was > 100 µM (inactive) in each case. Moreover, in experiment [8], the GI50 was > 100 µM (inactive).

As to `CC#CC1C(OC(=O)c2ccccc2)CCCC1(CI)N=[N+]=[N-]` (centres undefined), the GI50 in experiment [1] was 38.7 µM (inactive); in experiment [3] it was 36.4 µM (inactive); in experiment [4], > 100 µM (inactive); in experiment [5] it was 20.1 µM (inactive); in experiment [6] it was 25.1 µM (inactive); in experiment [7] it was 48.5 µM (inactive). In addition, in experiment [8], the GI50 is 52.1 µM (inactive).

Turning to `Cc1ccc2[nH]c3c(C)c4c(c(C)c3c2c1)CN(C)C=C4`, the GI50 in experiment [1] is 1.04 µM (active); in experiment [2], 0.931 µM (active); in experiment [3], 0.377 µM (active); in experiment [4], 7.46 µM (inactive); in experiment [5], 1.25 µM (inactive); in experiment [8] it was 1.44 µM (inactive).

As to `CN(C)C(=Nc1nc(N(C)C)s[s+]1)N(C)C`, the GI50 in experiment [1], in experiment [2], in experiment [3], in experiment [4], in experiment [5] and in experiment [6] was > 100 µM (inactive) in each case. The GI50 in experiment [7] and in experiment [8] was > 100 µM (inactive) in each case.

On to `O=C1C=C(Nc2ccccc2C(=O)CC(=O)C(=O)Nc2cccc([N+](=O)[O-])c2)c2ccccc2C1=O`, for which the GI50 in experiment [1] is 31.1 µM (inactive); in experiment [2] it was > 100 µM (inactive); in experiment [3] it was 32.4 µM (inactive); in experiment [5], 19.6 µM (inactive); in experiment [6], 18.5 µM (inactive); in experiment [7], 4.45 µM (inactive). Also, in experiment [8], the GI50 is 21.9 µM (inactive).

Take `Cc1nc(C(N)=S)sc1C(=O)/C=C/c1cccc(O)c1`: the GI50 was > 100 µM (inactive) in experiment [1]; > 100 µM (inactive) in experiment [2]; > 100 µM (inactive) in experiment [4]; 68.1 µM (inactive) in experiment [6]; > 100 µM (inactive) in experiment [7]; > 100 µM (inactive) in experiment [8].

As to `CSc1nc(NC2OC(COC(C)=O)C(OC(C)=O)C(OC(C)=O)C2OC(C)=O)c2c(n1)OCC2=O` (centres undefined), the GI50 in experiment [2], in experiment [3], in experiment [4], in experiment [6], in experiment [7] and in experiment [8] was > 100 µM (inactive) in each case.

For the compound `COc1ccc(N2C(=O)C3c4[nH]c5ccccc5c4C4CCC(C(C)(C)C)CC4C3C2=O)cc1OC` (centres undefined), the GI50 in experiment [1] is 17.1 µM (inactive); in experiment [3], 18.5 µM (inactive); in experiment [4], 20.9 µM (inactive); in experiment [5] it was 18.2 µM (inactive); in experiment [7], 51.1 µM (inactive); in experiment [8], 15.1 µM (inactive).

Consider `OC1(C23CC4CC(CC(C4)C2)C3)CSCC1(O)C12CC3CC(CC(C3)C1)C2` (centres undefined), for which the GI50 in experiment [1] was > 100 µM (inactive); in experiment [2] it was > 100 µM (inactive); in experiment [3], > 100 µM (inactive); in experiment [5] it was > 100 µM (inactive); in experiment [6], > 100 µM (inactive); in experiment [7] it was 64.6 µM (inactive). For the same compound, the GI50 in experiment [8] is > 100 µM (inactive).

On to `COC(=O)N/N=C(\C)CC(=O)Nc1ccc(Cl)cc1`, for which the GI50 in experiment [2], in experiment [3], in experiment [5], in experiment [6], in experiment [7] and in experiment [8] was > 100 µM (inactive) each time.

For `Cn1nc2ccccc2cc1=O`, the GI50 in experiment [1], in experiment [2], in experiment [4], in experiment [5], in experiment [6] and in experiment [7] was > 100 µM (inactive) in each case. Besides, the GI50 in experiment [8] is > 100 µM (inactive).

As to `CCn1c2ccccc2c(=O)c2c(OC)ccc(OC)c21`, the GI50 was 30.8 µM (inactive) in experiment [1]; 49.1 µM (inactive) in experiment [2]; 34 µM (inactive) in experiment [3]; 34.1 µM (inactive) in experiment [5]; 74 µM (inactive) in experiment [7].

As a reminder, the GI50 is the concentration giving 50% growth inhibition.
